Reference: US7648978B2, “Small molecule modulators of cytokine activity” (Angion Biomedica Corp., priority 2004, dated 2010)

How the values were obtained:
Assay type in all cases: cell-based
[1] = tested on: Endothelial cells (HUVECs); assay: HUVEC proliferation (3H-thymidine incorporation); conditions: Homo sapiens, Table 1, read-out: HUVEC ED50
Method: (§1) a. Proliferation. The following assay was performed to assess the activity of the compounds of the invention in cell proliferation. Endothelial cells (HUVECs) were seeded in 96-well plates at a density of 10,000 cells per well in the normal growth medium (EGM-2-Clonetics) containing 2% fetal bovine serum, FGF, VEGF, IGF, ascorbic acid, EGF, GA, heparin and hydrocortisone. The cells were grown normally in the growth medium for 24 hr at 37° C. and 5% CO2. The cells were then rinsed with RPMI-1% BSA and starved for 1-2 hr. The stock solutions of the compounds of the invention were made at a concentration of 10 mg/ml in DMSO and diluted in RPMI-1% BSA at final concentrations of 0.001 uM to 50 uM. The cells were then washed and treated with the compounds and incubated for another 20 hr at 37° C. Then ^3H thymidine (0.5 microgram/ml in RPMI-BSA) was added to the cells and incubated at 37° C. for 4 hr. The unincorporated thymidine was removed by washing the cells four times with 1×PBS. Then the cells were lysed with 0.5M NaOH for 30 min and the radioactivity counted in the beta counter. A similar proliferation assay using monkey bronchial epithelial cells (4MBR-5) and oligodendrocyte cells was also employed.

oligodendrocytes = assay: Oligodendrocyte proliferation; conditions: Mus musculus, Table 2, read-out: Oligodendrocyte ED50
Method: as §1
e. Stimulation of Oligodendrocyte Proliferation. Mouse primary oligodendrocytes (Celprogen, Calif.) were seeded in 96-well plates at 5000 cells/well in serum-free medium for 16 hours. Cells were treated with test compound or HGF/SF (positive control) for 16-24 hours. WST1 cell proliferation reagent (Roche, N.J.) was added to oligodendrocytes, and incubation was continued for another 4-5 hours. Cells with WST1 reagent were read using a plate reader at an OD of 490 nm.

monocytes / HUVECs = assay: Monocyte migration and binding to CRP-treated HUVECs; VCAM-1 and MCP-1 expression; conditions: CRP 25 ug/ml, test compound 10 uM or HGF 50 ng/ml
Method: a. Compound treatment decreases monocyte migration and binding to ECs. […] HUVECs were incubated with CRP (25 ug/ml), CRP together with test compound (10 uM) or HGF (50 ng/ml). The cellular extracts with lysis buffer and analyzed for VCAM-1 and MCP-1 expression via Western blot analysis. For Monocyte binding and migration experiments, monocytes were labeled with a fluorescent dye Vybrant Did (Molecular Probes) and treated to the HUVECs treated as above.

Compound | EC50 [1] [nM] | further results
CC1CCCCN1c1ccc(-c2n[nH]c(=O)c3ccccc23)cc1[N+](=O)[O-] (stereo not shown) | 2000 | –
CCC1CCCCN1c1ccc(-c2n[nH]c(=O)c3ccccc23)cc1[N+](=O)[O-] (stereo not shown) | 3000 | –
O=c1[nH]nc(-c2ccc(N3CCCCCC3)c([N+](=O)[O-])c2)c2ccccc12 [drawing 50] | 2500 | –
O=c1[nH]nc(-c2ccc(N3CCCCC3)c([N+](=O)[O-])c2)c2ccccc12 [drawing 58] | – | EC50 (oligodendrocytes): 200 nM
CC1CCN(c2ccc(-c3n[nH]c(=O)c4ccccc34)cc2[N+](=O)[O-])CC1 [drawing 59] | – | EC50 (oligodendrocytes): 200 nM
CC1CCCN(c2ccc(-c3n[nH]c(=O)c4ccccc34)cc2[N+](=O)[O-])C1 (stereo not shown) | 3000 | –
CCCC1CCN(c2ccc(-c3n[nH]c(=O)c4ccccc34)cc2[N+](=O)[O-])CC1 | 4000 | –
CC1CCN(c2ccc(-c3n[nH]c(=O)c4ccccc34)cc2[N+](=O)[O-])CC1 [drawing 52] | 5000 | –
O=c1[nH]nc(-c2ccc(N3CCCCCC3)c([N+](=O)[O-])c2)c2ccccc12 [drawing 57] | – | EC50 (oligodendrocytes): 200 nM
HGF: Scatter factor / hepatocyte growth factor, a pleiotropic growth factor; used as positive control | – | monocyte migration and binding to endothelial cells (monocytes / HUVECs; FIG. 17): decreased; MCP-1 expression (monocytes / HUVECs; Western blot): decreased; VCAM-1 expression (monocytes / HUVECs; Western blot): decreased
O=c1[nH]nc(-c2ccc(N3CCCCC3)c([N+](=O)[O-])c2)c2ccccc12 [drawing 51] | 10000 | –
